The results in this text go back to US8404683B2, “Inhibitors of the interaction between MDM2 and P53” (Janssen Pharmaceutical N.V., priority 2004, dated 2013).

Bounds are passed on as bounds.

This assay relates to U87MG cells. Nature of the assay: Proliferation assay (MTT-based) on U87MG tumour cells. The conditions noted are these: Homo sapiens, U-87 MG, 96 h, 4 days of incubation, negative log value of the IC50-value, read-out: cell proliferation pIC50 (converted). The procedure: U87MG cells are human glioblastoma cells with wild type p53. In this cell line MDM2 tightly controls p53 expression.
Cellular activity of the compounds of formula (I) was determined on U87MG tumour cells using a colorimetric assay for cell toxicity or survival (see example C.2).
All compounds tested were dissolved in DMSO and further dilutions were made in culture medium. Final DMSO concentrations never exceeded 0.1% (v/v) in cell proliferation assays. Controls contained U87MG cells and DMSO without compound and blanks contained DMSO but no cells.
U87MG cells were seeded in 96-well cell culture plates at 3000 cells/well/100 μl. 24 hours later, medium was changed and compound and/or solvent were added to a final volume of 200 μl. Following 4 days of incubation, medium was replaced by 200 μl fresh medium and cell growth was assessed using a MTT-based assay. Therefore, 25 μl of the MTT solution (0.5% MTT research grade from Serva in phosphate-buffered saline) was added to each well and the cells were further incubated for 2 hours at 37° C. The medium was then carefully aspirated and the blue MTT-formazan product was dissolved by adding to each well 25 μl 0.1 M glycin and 100 μl DMSO. The plates were shaken for another 10 min on a micro plate shaker before reading absorbance at 540 nm by a Biorad micro plate reader.
Within an experiment, the results for each experimental condition are the mean of 3 replicate wells. For initial screening purposes, compounds were tested at a single fixed concentration of 10^−5 M. For active compounds, the experiments were repeated to establish full concentration-response curves. For each experiment, controls (containing no drug) and a blank incubation (containing no cells or drugs) were run in parallel. The blank value was subtracted from all control and sample values. For each sample, the mean value for cell growth (in absorbance units) was expressed as a percentage of the mean value for cell growth of the control. When appropriate, IC50-values (concentration of the drug, needed to reduce cell growth to 50% of the control) were computed using probit analysis for graded data (Finney, D. J., Probit Analyses, 2nd Ed. Chapter 10, Graded Responses, Cambridge University Press, Cambridge 1962). Herein the effects of test compounds are expressed as pIC50 (the negative log value of the IC50-value) (see table F-2).
Regarding `CCC(=O)NCc1cc(Nc2ccc(NCCc3c[nH]c4ccccc34)cc2)ccn1` [Compound 132], the IC50 is greater than 10 µM. With `O=C(CCc1c[nH]c2ccccc12)Nc1cccc(Nc2ccncc2)c1` [Compound 82] the figure was greater than 10 µM. For `Nc1cccc2c(Nc3ccc(NCCc4c[nH]c5ccccc45)cc3)ccnc12` [Compound 25], the IC50 is 0.0398 µM. As to `O=C(C(Cc1c[nH]c2ccccc12)Nc1ccc(Nc2ccncc2)cc1)N1CCC(CO)CC1` (centres unmarked) [Compound 224], the IC50 is 3.98 µM.

With `COc1ccc2c(CCNc3ccc(Nc4ccnc5c4CCC5O)cc3)c[nH]c2c1` (centres unmarked) [Compound 196], the IC50 is 0.2 µM. With `c1ccc(COc2cc(Nc3ccnc4ccccc34)ccc2NCCc2c[nH]c3ccccc23)cc1` [Compound 17] the figure was 0.631 µM.

As to `c1ccc2c(CCCNc3ccc(Nc4ccncc4)cc3)c[nH]c2c1` [Compound 71], the IC50 is 0.794 µM. Turning to `c1cncc(Nc2cccc(NCCc3c[nH]c4ccccc34)c2)c1` [Compound 76], the IC50 was greater than 10 µM. With `CCOc1cc(Nc2ccncc2)ccc1NCCc1c[nH]c2ccccc12` [Compound 2] the figure was 0.0631 µM.

As to `Cc1cnccc1Cc1cnccc1Nc1ccc(NCCc2c[nH]c3ccccc23)cc1` [Compound 125], the IC50 is 3.98 µM. With `CNC(C)c1cc(Nc2ccc(NCCc3c[nH]c4ccccc34)cc2)ccn1` (centres unmarked) [Compound 142], the IC50 was 3.16 µM. With `COC(=O)c1ccc2nc(C)cc(Nc3ccc(NCCc4c[nH]c5ccccc45)cc3)c2c1` [Compound 15], the IC50 is 0.0501 µM. With `CC(C)(O)c1cc(Nc2ccc(NCCc3c[nH]c4ccccc34)cc2)ccn1` [Compound 201] the figure was 3.16 µM; with `O=C(OCc1ccccc1)N1CCN(Cc2cc(Nc3ccc(NCCc4c[nH]c5ccccc45)cc3)ccn2)CC1` [Compound 90], 2.51 µM. With `CCCc1cc(Nc2ccc(NCCc3c[nH]c4ccccc34)cc2)c2ccccc2n1` [Compound 30] the figure was 0.316 µM; with `FC(F)(F)c1cccc2c(Nc3ccc(NCCc4c[nH]c5ccccc45)cc3)ccnc12` [Compound 31], 1.26 µM. Turning to `COC(=O)CCOCc1cc(Nc2ccc(NCCc3c[nH]c4ccccc34)cc2)ccn1` [Compound 172], the IC50 is greater than 10 µM. `Cc1cc(Nc2ccc(NCCc3c[nH]c4ccccc34)cc2)ccn1` [Compound 46]: the IC50 was 0.251 µM. Regarding `NCc1cc(Nc2ccc(NCCc3c[nH]c4ccccc34)cc2)ccn1` [Compound 55], the IC50 is 0.501 µM. Consider `c1ccc2c(CCNc3ccc(Nc4ccnc(CNCCCN5CCOCC5)c4)cc3)c[nH]c2c1` [Compound 166], for which the IC50 is greater than 10 µM. With `c1ccc(COc2cc(Nc3ccncc3)ccc2NCCc2c[nH]c3ccccc23)cc1` [Compound 61] the figure was 0.316 µM; with `CC(NCCNC(=O)OCc1ccccc1)c1cc(Nc2ccc(NCCc3c[nH]c4ccccc34)cc2)ccn1` (centres unmarked) [Compound 88], 3.16 µM. With `O=c1cc(Nc2ccc(NCCc3c[nH]c4ccccc34)cc2)cc[nH]1` [Compound 173], the IC50 is greater than 10 µM. With `COCC(O)C1CCN(C(=O)C(Cc2c[nH]c3ccccc23)Nc2ccc(Nc3ccncc3)cc2)CC1` (centres unmarked) [Compound 223] the figure was 0.794 µM; with `c1ccc2c(CCNc3ccc(Nc4ccnc5c4CCC5)cc3)c[nH]c2c1` [Compound 4], 0.01 µM; with `Oc1cccc2c(Nc3ccc(NCCc4c[nH]c5ccccc45)cc3)ccnc12` [Compound 27], 0.0794 µM.

For `CCOc1cc(Nc2ccncc2)ccc1NCCc1c[nH]c2cc(OC)ccc12` [Compound 177], the IC50 is 0.0501 µM. With `Clc1ccc2c(CCNc3ccc(Nc4ccncc4)cc3)c[nH]c2c1` [Compound 50] the figure was 0.1 µM; with `O=C(NCc1cc(Nc2ccc(NCCc3c[nH]c4ccccc34)cc2)ccn1)C1CC1` [Compound 130], 1.58 µM; with `Cc1noc(-c2cc(Nc3ccc(NCCc4c[nH]c5ccccc45)cc3)ccn2)n1` [Compound 106], 1.58 µM. Take `COC(=O)COCc1cc(Nc2ccc(NCCc3c[nH]c4ccccc34)cc2)ccn1` [Compound 98]: the IC50 is 3.98 µM. As for `c1ccc(COCc2cc(Nc3ccc(NCCc4c[nH]c5ccccc45)cc3)ccn2)cc1` [Compound 167], the IC50 was 3.98 µM. With `O=C(OCc1ccccc1)C(Cc1c[nH]c2ccccc12)Nc1ccc(Nc2ccncc2)cc1` (centres unmarked) [Compound 67], the IC50 was 1.26 µM. Take `c1ccc2c(CCNc3ccc(Nc4ccncc4)cc3)c[nH]c2c1` [Compound 36]: the IC50 is 0.2 µM. Turning to `N#Cc1ccc2nccc(Nc3ccc(NCCc4c[nH]c5ccccc45)cc3)c2c1` [Compound 29], the IC50 was 0.251 µM.

Consider `O=C(NCCO)c1cc(Nc2ccc(NCCc3c[nH]c4ccccc34)cc2)ccn1` [Compound 52], for which the IC50 is 0.501 µM. On to `COC(=O)c1cnccc1Nc1ccc(NCCc2c[nH]c3ccccc23)cc1` [Compound 124], for which the IC50 was 5.01 µM. Turning to `c1ccc2c(c1)NCC2CCNc1ccc(Nc2ccnc3ccccc23)cc1` (centres unmarked) [Compound 34], the IC50 was 0.0501 µM.

Turning to `N#Cc1cc(Nc2ccc(NCCc3c[nH]c4ccccc34)cc2)ccn1` [Compound 86], the IC50 was greater than 10 µM. With `CN(C)CCNCc1cc(Nc2ccc(NCCc3c[nH]c4ccccc34)cc2)ccn1` [Compound 59], the IC50 is 0.398 µM. With `c1ccc2c(c1)NCC2CCNc1ccc(Nc2ccncc2)cc1` (centres unmarked) [Compound 68] the figure was 2.51 µM; with `CCOc1cc(Nc2ccnc(C(C)(C)O)c2)ccc1NCCc1c[nH]c2cc(OC)ccc12` [Compound 139], 2 µM. Consider `O=[N+]([O-])c1cccc2c(Nc3ccc(NCCc4c[nH]c5ccccc45)cc3)ccnc12` [Compound 23], for which the IC50 was 0.398 µM. On to `OCc1cc(Nc2ccc(NCCc3c[nH]c4ccccc34)cc2)ccn1` [Compound 37], for which the IC50 is 0.158 µM. With `CCN(CC)Cc1cc(Nc2ccc(NCCc3c[nH]c4ccccc34)cc2)ccn1` [Compound 161] the figure was 1 µM. With `NCCNCc1cc(Nc2ccc(NCCc3c[nH]c4ccccc34)cc2)ccn1` [Compound 93] the figure was greater than 10 µM; with `c1ccc2c(CCNc3ccc(Nc4ccnc(CNCCN5CCOCC5)c4)cc3)c[nH]c2c1` [Compound 153], 2.51 µM. As for `CCOCc1cc(Nc2ccc(NCCc3c[nH]c4ccccc34)cc2)ccn1` [Compound 134], the IC50 was 1.26 µM. With `COc1cccc2c(Nc3ccc(NCCc4c[nH]c5ccccc45)cc3)ccnc12` [Compound 21] the figure was 0.01 µM; with `c1cncc(Nc2ccc(NCc3c[nH]c4ccccc34)cc2)c1` [Compound 78], 10 µM; with `Cc1cnccc1Nc1ccc(NCCc2c[nH]c3ccccc23)cc1` [Compound 60], 0.1 µM. With `NC(=O)C(Cc1c[nH]c2ccccc12)Nc1ccc(Nc2ccncc2)cc1` (centres unmarked) [Compound 65], the IC50 is greater than 10 µM. `CC(C)(C)OC(=O)N(CCc1cn(C(=O)OC(C)(C)C)c2ccccc12)c1ccc(Nc2ccncc2)cc1` [Compound 226]: the IC50 was 3.16 µM. As for `Cc1ccc2[nH]cc(CCNc3ccc(Nc4ccncc4)cc3)c2c1` [Compound 185], the IC50 was 2 µM. Regarding `N#CC=Cc1ccc2c(CCNc3ccc(Nc4ccncc4)cc3)c[nH]c2c1` [Compound 194], the IC50 is 6.31 µM. With `COCCN(C)C(=O)C(Cc1c[nH]c2ccccc12)Nc1ccc(Nc2ccncc2)cc1` (centres unmarked) [Compound 215], the IC50 was 3.16 µM.
